One assay deals with T1, IRAK4 (Homo sapiens, UniProt Q9NWZ3).
T1 sequence (Q9NWZ3 1-460): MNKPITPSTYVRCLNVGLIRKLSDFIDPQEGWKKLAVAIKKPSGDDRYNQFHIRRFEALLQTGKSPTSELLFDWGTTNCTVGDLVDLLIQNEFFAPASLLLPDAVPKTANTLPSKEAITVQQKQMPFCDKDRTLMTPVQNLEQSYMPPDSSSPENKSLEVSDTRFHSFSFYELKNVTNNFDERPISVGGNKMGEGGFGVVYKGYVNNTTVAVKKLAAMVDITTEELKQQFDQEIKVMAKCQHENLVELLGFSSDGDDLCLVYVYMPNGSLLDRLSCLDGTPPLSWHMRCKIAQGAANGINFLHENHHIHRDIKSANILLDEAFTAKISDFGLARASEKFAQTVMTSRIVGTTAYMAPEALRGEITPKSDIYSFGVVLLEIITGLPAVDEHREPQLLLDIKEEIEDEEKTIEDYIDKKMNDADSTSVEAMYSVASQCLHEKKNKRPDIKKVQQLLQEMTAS
The assay is described as follows: RBC HotSpot kinase inhibition assay, IRAK4. The class given is biochemical. Particulars: isolated kinase, 33P-ATP, 2 h. Summed up:
(§1)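 Isolated kinases, possibly truncated or lacking regulatory receptor domains, in 20 mM Hepes pH 7.5, 10 mM MgCl2, 1 mM EGTA, 0.01% Brij35, 2 mM DTT, 1% DMSO with substrate and cofactors. Compound preincubated 20 min, then ^33P-ATP added; 2 h at room temperature, read by P81 filter binding.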

The next assay addresses IRAK1 (Homo sapiens, UniProt P51617). The assay can be described thus: RBC HotSpot kinase inhibition assay, IRAK1. The class given is biochemical. Particulars: isolated kinase, 33P-ATP, 2 h. Summed up:
as §1

In another assay the test system is MOLM14 D835Y cells. The assay is described as follows: MOLM14 D835Y cell viability (Cell Titer Glo). The class given is cell-based. Particulars: Homo sapiens. Put shortly: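 FLT3-D835Y-mutant MOLM14 cells, 1000/well in RPMI-1640 with 20% FBS, treated with 22-point 1:2 dilutions starting at 10 μM. After 48 h incubation, viability was read by CellTiter-Glo luminescence; bortezomib (2.3 μM final) served as cytotoxic control.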

Sequence of IRAK1 (P51617 whole entry): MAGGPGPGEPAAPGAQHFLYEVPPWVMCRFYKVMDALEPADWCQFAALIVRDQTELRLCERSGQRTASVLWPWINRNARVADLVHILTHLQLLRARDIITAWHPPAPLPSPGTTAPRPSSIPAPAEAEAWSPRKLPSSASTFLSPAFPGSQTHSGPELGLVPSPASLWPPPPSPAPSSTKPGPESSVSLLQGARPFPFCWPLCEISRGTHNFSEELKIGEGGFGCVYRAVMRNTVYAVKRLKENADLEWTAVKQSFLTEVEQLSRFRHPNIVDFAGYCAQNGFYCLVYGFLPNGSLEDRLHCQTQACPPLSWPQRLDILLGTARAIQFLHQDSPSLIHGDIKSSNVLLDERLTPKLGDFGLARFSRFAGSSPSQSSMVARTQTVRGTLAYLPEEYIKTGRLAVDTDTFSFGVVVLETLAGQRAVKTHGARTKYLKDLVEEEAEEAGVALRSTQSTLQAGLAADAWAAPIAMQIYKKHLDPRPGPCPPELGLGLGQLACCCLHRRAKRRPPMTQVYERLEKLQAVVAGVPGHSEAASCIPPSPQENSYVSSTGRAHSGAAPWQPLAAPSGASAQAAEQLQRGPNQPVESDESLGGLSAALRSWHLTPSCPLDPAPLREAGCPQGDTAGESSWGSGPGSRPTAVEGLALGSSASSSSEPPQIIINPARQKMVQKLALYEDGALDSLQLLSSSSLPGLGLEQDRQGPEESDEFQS

As to `COc1cn2ncc(-c3nc(N[C@H]4CNCC[C@@H]4F)ncc3F)c2nc1C(C)(C)O` [Compound 6a, 2-(3-(5-fluoro-2-(((3S,4S)-4-fluoropiperidin-3-yl)amino)pyrimidin-4-yl)-6-methoxypyrazolo[1,5-a]pyrimidin-5-yl)propan-2-ol], the IC50 against IRAK4 (Table 17) is 0.7 nM; against IRAK1 (Table 17) it was 3 nM; with MOLM14 D835Y cells (MOLM-14, Table 22, 48 h), 5 nM.
With `COc1cn2ncc(-c3nc(N[C@H]4CNCC[C@@H]4F)ncc3F)c2nc1C1CC1` [Compound 15a, 4-(5-cyclopropyl-6-methoxypyrazolo[1,5-a]pyrimidin-3-yl)-5-fluoro-N-((3S,4S)-4-fluoropiperidin-3-yl)pyrimidin-2-amine], the IC50 was 0.7 nM against IRAK4 (Table 17); below 0.5 nM on IRAK1 (Table 17); 2 nM in the assay with MOLM14 D835Y cells (MOLM-14, Table 22, 48 h).
Take `COc1cn2ncc(-c3ccc(F)c(N[C@@H]4CCCNC4)n3)c2nc1C1CC1` [Compound 5, (R)-6-(5-cyclopropyl-6-methoxypyrazolo[1,5-a]pyrimidin-3-yl)-3-fluoro-N-(piperidin-3-yl)pyridin-2-amine]: the half-inhibitory concentration (IC50) against IRAK4 (Table 11) stood at 3 nM; at IRAK1 (Table 11), 29 nM; in the assay with MOLM14 D835Y cells (MOLM-14, Table 16, 48 h) it was 20 nM.
With `COc1cn2ncc(-c3nc(N[C@H]4CNCC[C@@H]4F)c(F)cc3F)c2nc1C1CC1` [Compound 22, 6-(5-cyclopropyl-6-methoxypyrazolo[1,5-a]pyrimidin-3-yl)-3,5-difluoro-N-((3S,4S)-4-fluoropiperidin-3-yl)pyridin-2-amine], the concentration for half-maximal inhibition (IC50) against IRAK4 (Table 11) was below 0.5 nM; against IRAK1 (Table 11), below 0.5 nM; in the assay with MOLM14 D835Y cells (MOLM-14, Table 16, 48 h), 2 nM.
In the case of `COc1cn2ncc(-c3cncc(N[C@H]4CNCC[C@@H]4F)n3)c2nc1C1CC1` [Compound 12a, 6-(5-cyclopropyl-6-methoxypyrazolo[1,5-a]pyrimidin-3-yl)-N-((3S,4S)-4-fluoropiperidin-3-yl)pyrazin-2-amine], the IC50 on IRAK4 (Table 17) came to 0.8 nM; on IRAK1 (Table 17), 6 nM; in the assay on MOLM14 D835Y cells (MOLM-14, Table 22, 48 h) it was 12 nM.
On to `COc1cn2ncc(-c3nc(N[C@H]4CNCC[C@@H]4F)c(F)cc3F)c2nc1C(C)(C)O` [Compound 13, 2-(3-(3,5-difluoro-6-(((3S,4S)-4-fluoropiperidin-3-yl)amino)pyridin-2-yl)-6-methoxypyrazolo[1,5-a]pyrimidin-5-yl)propan-2-ol], for which the IC50 at IRAK4 (Table 11) amounted to 2 nM; against IRAK1 (Table 11) it was 7 nM; in the assay with MOLM14 D835Y cells (MOLM-14, Table 16, 48 h) it was 14 nM.
As to `COc1cn2ncc(-c3ccnc(N[C@H]4CNCC[C@@H]4F)n3)c2nc1C1CC1` [Compound 7a, 4-(5-cyclopropyl-6-methoxypyrazolo[1,5-a]pyrimidin-3-yl)-N-((3S,4S)-4-fluoropiperidin-3-yl)pyrimidin-2-amine], the IC50 stood at 1 nM against IRAK4 (Table 17); 8 nM on IRAK1 (Table 17); 7 nM with MOLM14 D835Y cells (MOLM-14, Table 22, 48 h).
For the compound `COc1cn2ncc(-c3nc(N[C@H]4CNC[C@@H]4F)ncc3F)c2nc1C1CC1` [Compound 13a, 4-(5-cyclopropyl-6-methoxypyrazolo[1,5-a]pyrimidin-3-yl)-5-fluoro-N-((3S,4S)-4-fluoropyrrolidin-3-yl)pyrimidin-2-amine], the IC50 is below 0.5 nM against IRAK4 (Table 17); below 0.5 nM against IRAK1 (Table 17); 4 nM in the assay on MOLM14 D835Y cells (MOLM-14, Table 22, 48 h).
In the case of `COc1cn2ncc(-c3ccc(F)c(N[C@H]4CNCC[C@@H]4F)n3)c2nc1C1CC1` [Compound 6, 6-(5-cyclopropyl-6-methoxypyrazolo[1,5-a]pyrimidin-3-yl)-3-fluoro-N-((3S,4S)-4-fluoropiperidin-3-yl)pyridin-2-amine], the concentration for half-maximal inhibition (IC50) at IRAK4 (Table 11) worked out at 0.6 nM; on IRAK1 (Table 11), 4 nM; in the assay on MOLM14 D835Y cells (MOLM-14, Table 16, 48 h), 11 nM.
Turning to `COc1cn2ncc(-c3ccnc(N[C@H]4CNCC[C@@H]4F)n3)c2nc1C(C)(C)O` [Compound 3a, 2-(3-(2-(((3S,4S)-4-fluoropiperidin-3-yl)amino)pyrimidin-4-yl)-6-methoxypyrazolo[1,5-a]pyrimidin-5-yl)propan-2-ol], the half-maximal inhibitory concentration (IC50) against IRAK4 (Table 17) turned out to be 15 nM; against IRAK1 (Table 17), 207 nM; in the assay on MOLM14 D835Y cells (MOLM-14, Table 22, 48 h), 86 nM.
In the case of `COc1cn2ncc(-c3nc(N[C@@H]4CCCNC4)c(F)cc3F)c2nc1C(C)(C)O` [Compound 11, (R)-2-(3-(3,5-difluoro-6-(piperidin-3-ylamino)pyridin-2-yl)-6-methoxypyrazolo[1,5-a]pyrimidin-5-yl)propan-2-ol], the IC50 on IRAK4 (Table 11) was determined as 1 nM; against IRAK1 (Table 11) it was 3 nM; in the assay with MOLM14 D835Y cells (MOLM-14, Table 16, 48 h), 13 nM.

As usually defined, the IC50 is the concentration needed to halve the response being measured. Lower therefore signals greater potency in that assay.
